Values after ≈ are worked out from the molar mass of the structure shown. Active and inactive are the calls of the source. The rule behind the calls is not given here.
Experiments:
Assay type in all cases: functional
[1] = test system: Bacillus cereus; experiment: Antimicrobial activity against Bacillus cereus 709 Roma assessed as growth inhibition after 18-24 hr by broth double microdilution method
[2] = test system: Candida albicans; experiment: Antimicrobial activity against Candida albicans ATCC 60193 assessed as growth inhibition after 18-24 hr by broth double microdilution method
[3] = test system: Mycolicibacterium smegmatis; experiment: Antimicrobial activity against Mycobacterium smegmatis ATCC 607 assessed as growth inhibition after 48-72 hr by broth double microdilution method
[4] = test system: Enterococcus faecalis; experiment: Antimicrobial activity against Enterococcus faecalis ATCC 29212 assessed as growth inhibition after 18-24 hr by broth double microdilution method
[5] = test system: Pseudomonas aeruginosa; experiment: Antimicrobial activity against Pseudomonas aeruginosa ATCC 10145 assessed as growth inhibition after 18-24 hr by broth double microdilution method
[6] = test system: Saccharomyces cerevisiae; experiment: Antimicrobial activity against Saccharomyces cerevisiae RSKK 251 assessed as growth inhibition after 18-24 hr by broth double microdilution method
[7] = test system: Escherichia coli; experiment: Antimicrobial activity against Escherichia coli ATCC 35218 assessed as growth inhibition after 18-24 hr by broth double microdilution method
[8] = test system: Staphylococcus aureus; experiment: Antimicrobial activity against Staphylococcus aureus ATCC 25923 assessed as growth inhibition after 18-24 hr by broth double microdilution method
[9] = test system: Yersinia pseudotuberculosis; experiment: Antimicrobial activity against Yersinia pseudotuberculosis ATCC 911 assessed as growth inhibition after 18-24 hr by broth double microdilution method
[10] = test system: Listeria monocytogenes; experiment: Antimicrobial activity against Listeria monocytogenes ATCC 43251 assessed as growth inhibition after 18-24 hr by broth double microdilution method

Cc1nn(-c2ccc(/N=C3\SCC(=O)N3Cc3ccccc3)cc2F)c(=O)n1CCCn1ccnc1
MIC [1]: inactive | MIC [2]: 500 µg/mL (≈ 989 µM) | MIC [3]: 125 µg/mL (≈ 247 µM) | MIC [4]: inactive | MIC [5]: inactive | MIC [6]: 500 µg/mL (≈ 989 µM) | MIC [7]: inactive | MIC [8]: inactive | MIC [9]: inactive | MIC [10]: inactive

Cc1nn(CNC2C(=O)N3C2SC(C)(C)C3C(=O)O)c(=O)n1CCCn1ccnc1 (stereo not given)
MIC [1]: 125 µg/mL (≈ 287 µM) | MIC [2]: inactive | MIC [3]: 31.3 µg/mL (≈ 71.9 µM) | MIC [4]: inactive | MIC [5]: 125 µg/mL (≈ 287 µM) | MIC [6]: inactive | MIC [7]: inactive | MIC [8]: 62.5 µg/mL (≈ 144 µM) | MIC [9]: 125 µg/mL (≈ 287 µM) | MIC [10]: inactive

Cc1nn(CN2CCCCC2)c(=O)n1CCCn1ccnc1
MIC [1]: < 0.12 µg/mL | MIC [2]: 15.6 µg/mL (≈ 51.2 µM) | MIC [3]: 3.9 µg/mL (≈ 12.8 µM) | MIC [4]: < 0.12 µg/mL | MIC [5]: < 0.12 µg/mL | MIC [6]: 3.9 µg/mL (≈ 12.8 µM) | MIC [7]: < 0.12 µg/mL | MIC [8]: < 0.12 µg/mL | MIC [9]: < 0.12 µg/mL | MIC [10]: < 0.12 µg/mL

Cc1n[nH]c(=O)n1/N=C/c1ccncc1
MIC [1]: inactive | MIC [2]: 125 µg/mL (≈ 615 µM) | MIC [3]: 125 µg/mL (≈ 615 µM) | MIC [4]: inactive | MIC [5]: inactive | MIC [6]: 500 µg/mL (≈ 2460 µM) | MIC [7]: inactive | MIC [8]: inactive | MIC [9]: inactive | MIC [10]: inactive

Source: ChEMBL document CHEMBL3046479, “Preparation and antimicrobial activity evaluation of some new bi- and triheterocyclic azoles” (2013)
